Values quoted from earlier work as cited in publication PMC11998001, “Towards P2X4 Positron Emission Tomography Tracing” (Journal of Medicinal Chemistry, 2025).
Each block holds one compound with its values, some of them ahead of it.

Key:
[1] = set-up: method as in PMID 33125712
tactile allodynia = test system: tactile allodynia; set-up: method as in PMID 33125712
[2] = test system: NLRP3 Inflammasome in macrophages; set-up: method as in PMID 39805099
[3] = pH 7.4
[4] = for MLM stability: mouse, microsomes, 1.5 h
[5] = for blood-brain barrier (BBB) permeation of radioligand (in words): in vivo, 18F-radiolabeled form

SMILES: O=C1CN=C(c2cccc(Br)c2)c2oc3ccccc3c2N1 [5-BDBD]
water solubility (in words): low water solubility

water solubility (in words): high water solubility
SMILES: NS(=O)(=O)c1cc(NC(=O)Cc2ccccc2)ccc1Oc1cccc(Cl)c1 [BAY-1797]
blood-brain barrier permeation (in words) [1]: does not permeate the blood–brain barrier

SMILES: CC(C)c1cc(Br)c(NC(=O)Nc2cccnc2)c(Br)c1 [BX-430]
antagonist potency at the hP2X4 receptor (in words) (hP2X4R; allosteric antagonist): submicromolar

SMILES: CNCC[C@H](Oc1cccc2ccccc12)c1cccs1 [Duloxetine]
effect on tactile allodynia (in words) (tactile allodynia): reverse tactile allodynia

SMILES: Cc1cc(F)ccc1S(=O)(=O)Nc1ccc(N2C(=O)CC(=O)Nc3c2ccc2ccccc32)cc1 [Erlitz 44]
NLRP3 inflammasome activation / interleukin-1β release (in words) [2]: able to block NLRP3 inflammasome activation
logD7.4 [3]: 3.59
stability in mouse microsomes (in words) [4]: higher stability in mouse microsomes
MLM stability [4]: 93%

SMILES: Cc1cc(F)ccc1CS(=O)(=O)Nc1ccc(N2C(=O)CC(=O)Nc3c2ccc2ccccc32)cc1 [Erlitz 64]
NLRP3 inflammasome activation / interleukin-1β release (in words) [2]: able to block NLRP3 inflammasome activation
logD7.4 [3]: 3.68
MLM stability [4]: 64%

SMILES: Cc1cc([18F])ccc1S(=O)(=O)Nc1ccc(N2C(=O)CC(=O)Nc3c2ccc2ccccc32)cc1 [Erlitz [^18F]44]
in vivo metabolism of radioligand (in words) [5]: rapid, in vivo metabolism
blood-brain barrier (BBB) permeation of radioligand (in words) [5]: almost no blood–brain barrier (BBB) permeation

SMILES: Cc1cc([18F])ccc1CS(=O)(=O)Nc1ccc(N2C(=O)CC(=O)Nc3c2ccc2ccccc32)cc1 [Erlitz [^18F]64]
in vivo metabolism of radioligand (in words) [5]: rapid, in vivo metabolism
blood-brain barrier (BBB) permeation of radioligand (in words) [5]: almost no blood–brain barrier (BBB) permeation

SMILES: O=C1CC(=O)N(c2cccc(-c3noc(=S)[nH]3)c2)c2ccc3ccccc3c2N1 [NP-1815-PX]
water solubility (in words): high potency and water solubility

IC50 (hP2X4R; representative P2X4 antagonists, Figure 2): 190 nM
SMILES: O=C(OCc1ccccc1)N1c2ccccc2Oc2ccccc21 [PSB-12054]

water solubility (in words): more water-soluble than the first
SMILES: Cc1ccc(S(=O)(=O)N2c3ccccc3Oc3ccccc32)cc1 [PSB-12062]

SMILES: Fc1ccc([C@@H]2CCNC[C@H]2COc2ccc3c(c2)OCO3)cc1 [Paroxetine]
effect on tactile allodynia (in words) (tactile allodynia): reverse tactile allodynia
